3 compounds from US8618154B2, “LXR modulators” (Bristol-Myers Squibb Company, priority 2009, dated 2013) can be followed below.

The test has as its system ABCG1 mRNA in blood cells. The test is described as follows: In vivo potency and maximum ABCG1 induction in cynomolgus monkey. The conditions noted are these: po; for EC50: Macaca fascicularis, 5 h. The protocol:
Compounds of the present invention were tested for their ability to induce the mRNA for the LXR target gene ABCG1 in blood cells when administered orally to cynomolgus monkeys.
Test compounds were formulated in 0.5% carboxymethyl cellulose (CMC, Sigma) and 2% Tween 80 (Sigma) by trituration. Each treatment group contained three male monkeys, each weighing 3.0-6.0 kg at the start of the study. Test compounds were formulated fresh each morning in vehicle, and animals that had been fasted the previous night were dosed between 7 and 7:30 AM by po gavage. For baseline blood cell mRNA determinations, 1 ml of venous blood was collected in an EDTA dry-coated tube and 1 volume of Dulbecco's Phosphate Buffered Saline without calcium or magnesium and 2 volumes of Nucleic Acid Purification Lysis Solution (Applied Biosystems, Inc.) were added. Samples were frozen at −80° C. prior to RNA isolation and analysis. Test compounds were dosed following the baseline sample collection. At 5 hr post-dose, venous blood was collected and processed as above for RNA determinations. An additional 0.5 ml of blood was also collected and analyzed for compound plasma concentrations.
Frozen samples were allowed to thaw at room temperature, and then placed on ice. Total RNA was isolated on the ABI 6100 using a pre-loaded protocol according to the manufacturer's instructions (ABI Manual #4332809 Rev. B).
qScript cDNA Synthesis Kit from Quanta Biosciences, Inc. was used to generate first-strand cDNA from each total RNA sample. 20 μl Reactions were carried out in 96-well Eppendorf AG twin-tec PCR plates on a MJ Research, Inc. model PTC-200 DNA Engine. Approximately 500 ng of total RNA was used for each reaction. Reactions were composed as follows: 4 μl 5× q-Script Reaction Mix plus 3-5 μl nuclease-free water plus 1 μl q-Script Reverse Transcriptase plus 10-12 μl input RNA. After mixing, reactions were centrifuged at 3750 rpm for 2 minutes at room temperature and run on a “q-Script” protocol (25° C. for 5 minutes, followed by 42° C. for 30 minutes, and then 85° C. for 5 minutes) in a MJ Research thermocycler. Each reaction was diluted with 30 μl of nuclease-free water and used immediately for SYBR-green Q-PCR or stored at −20° C. SYBR-Green Q-PCR reactions were performed as follows. Reaction mixtures for the LXR target gene, ABCG1, and the internal standard normalization gene ribosomal protein L30 were prepared using validated forward/reverse primer sets [ABCG1 (X-Mmul-ABCG1-F1 and X-Mmul-ABCG1-R1); ribosomal protein L30 (SYBR-hL30-F1 and SYBR-hL30-R1)]. […]
The relative amount of ABCG1 mRNA was calculated using the second derivative comparative Ct method (2^−ΔΔCt). Quantification was obtained after normalization to ribosomal protein L30 mRNA. […]

Usually EC50 stands for the concentration that produces a half-maximal response.

The compound `CC(C)(O)c1cn(-c2ccc(-c3cccc(S(C)(=O)=O)c3)cc2)c(C(C)(C)c2ccccc2Cl)n1` [Compound No. 19, Table 1, WO 2007/002563, reference compound] displayed an EC50 of 630 ± 168 nM. Also, the “Maximum ABCG1 Induction (fold vs. baseline ± S.E.)” value (blood cells, 5 hrs post-dose) came out at 12.4 ± 1.8 fold vs. baseline.

Take `CC(C)(O)c1cn(-c2ccc(-c3cc(F)c(CO)c(S(C)(=O)=O)c3)cc2)c(C(C)(C)c2cccc(F)c2Cl)n1` [Example 4, 2-(2-(2-(2-chloro-3-fluorophenyl)propan-2-yl)-1-(3′-fluoro-4′-(hydroxymethyl)-5′-(methylsulfonyl)biphenyl-4-yl)-1H-imidazol-4-yl)propan-2-ol]: a half-maximal effect (EC50) was put at 141 ± 53 nM.

`CC(C)(O)c1cn(-c2ccc(-c3cc(F)c(CO)c(S(C)(=O)=O)c3)cc2F)c(C(C)(C)c2c(Cl)cccc2Cl)n1` [Example 9, 2-(2-(2-(2,6-dichlorophenyl)propan-2-yl)-1-(3,3′-difluoro-4′-(hydroxymethyl)-5′-(methylsulfonyl)biphenyl-4-yl)-1H-imidazol-4-yl)propan-2-ol]: the concentration for a half-maximal effect (EC50) came to 11 ± 6 nM.
